Test [1] has as its target Delta-type opioid receptor (Rattus norvegicus, UniProt P33533). The experiment in a line: Displacement of [3H]DPDPE from delta opiate receptor in rat brain membranes. The class given is cell membranes.
In another test the target is Melanocortin receptor 4 (Homo sapiens, UniProt P32245). The experiment in a line: Displacement of [125I]Nle4-D-Phe7-alpha-MSH from human MC4 receptor expressed in COS1 cells. Type of test: cell-based, COS-1. A general note: Loss of bound radioactivity is the signal in a displacement assay; it reports binding, not function.
Another test concerns the target Mu-type opioid receptor (Rattus norvegicus, UniProt P33535). The experiment in a line: Displacement of [3H]DAMGO from mu opiate receptor in rat brain membranes. The class given is cell membranes.
Test [2] has as its target Norepinephrine transporter (Rattus norvegicus, UniProt Q9WTR4). The experiment in a line: Displacement of [3H]nisoxetine from NET in rat cortical membranes. The class given is cell membranes, Membrane.
Test [3] addresses T1, Adrenergic receptor alpha-1 (Rattus norvegicus, UniProt P15823+P23944+P43140).
T1 sequence (P15823 whole entry): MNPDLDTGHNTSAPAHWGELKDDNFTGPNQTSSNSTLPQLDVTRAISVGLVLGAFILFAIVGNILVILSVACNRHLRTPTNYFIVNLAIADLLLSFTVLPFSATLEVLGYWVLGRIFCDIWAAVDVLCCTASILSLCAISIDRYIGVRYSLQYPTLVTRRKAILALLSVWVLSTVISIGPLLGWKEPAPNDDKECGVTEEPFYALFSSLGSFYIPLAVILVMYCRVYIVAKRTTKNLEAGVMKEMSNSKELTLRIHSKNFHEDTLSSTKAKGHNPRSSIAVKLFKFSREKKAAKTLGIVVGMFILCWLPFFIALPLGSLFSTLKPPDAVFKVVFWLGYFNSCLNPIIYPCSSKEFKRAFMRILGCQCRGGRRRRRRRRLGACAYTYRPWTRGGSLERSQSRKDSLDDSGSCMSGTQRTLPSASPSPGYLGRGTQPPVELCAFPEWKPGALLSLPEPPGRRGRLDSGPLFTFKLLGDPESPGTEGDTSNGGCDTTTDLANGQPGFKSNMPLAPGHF
T1 sequence (P23944 whole entry): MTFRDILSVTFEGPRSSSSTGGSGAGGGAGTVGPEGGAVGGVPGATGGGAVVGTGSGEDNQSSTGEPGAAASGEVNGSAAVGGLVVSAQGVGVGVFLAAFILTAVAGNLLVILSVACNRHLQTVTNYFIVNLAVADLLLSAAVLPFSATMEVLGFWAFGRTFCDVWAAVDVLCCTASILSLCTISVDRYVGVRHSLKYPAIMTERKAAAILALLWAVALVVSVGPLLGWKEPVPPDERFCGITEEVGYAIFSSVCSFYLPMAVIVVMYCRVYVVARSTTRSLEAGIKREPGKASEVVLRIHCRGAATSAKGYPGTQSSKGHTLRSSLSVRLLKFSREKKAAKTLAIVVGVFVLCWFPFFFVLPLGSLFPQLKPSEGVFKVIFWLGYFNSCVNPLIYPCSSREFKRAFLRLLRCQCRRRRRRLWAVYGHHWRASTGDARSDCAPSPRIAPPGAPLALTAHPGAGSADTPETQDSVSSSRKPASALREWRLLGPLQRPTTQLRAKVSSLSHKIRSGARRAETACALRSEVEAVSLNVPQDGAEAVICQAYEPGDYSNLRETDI
T1 sequence (P43140 whole entry): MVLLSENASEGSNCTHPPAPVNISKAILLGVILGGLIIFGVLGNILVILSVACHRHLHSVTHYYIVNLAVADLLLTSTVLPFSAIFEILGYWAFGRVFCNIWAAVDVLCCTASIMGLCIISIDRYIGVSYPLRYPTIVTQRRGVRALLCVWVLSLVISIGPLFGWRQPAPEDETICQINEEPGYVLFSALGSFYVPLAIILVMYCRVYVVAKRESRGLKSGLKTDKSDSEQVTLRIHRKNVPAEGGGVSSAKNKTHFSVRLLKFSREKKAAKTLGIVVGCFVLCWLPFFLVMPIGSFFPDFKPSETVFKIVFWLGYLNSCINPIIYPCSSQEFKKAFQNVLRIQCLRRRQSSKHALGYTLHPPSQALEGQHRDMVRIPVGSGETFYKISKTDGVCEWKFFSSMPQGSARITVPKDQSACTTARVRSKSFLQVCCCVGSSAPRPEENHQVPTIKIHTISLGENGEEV
The experiment in a line: Displacement of [3H]prazosin from adrenergic alpha-1 receptor in rat cortical membranes. The class given is cell membranes, Membrane.

A further test addresses Histamine H1 receptor (Rattus norvegicus, UniProt P31390). The experiment in a line: Displacement of [3H]pyrilamine from histamine H1 receptor in rat brain membranes. The class given is cell membranes.
The target of the next test is D(2) dopamine receptor (Rattus norvegicus, UniProt P61169). The experiment in a line: Displacement of [3H]raclopride from dopamine D2 receptor in rat striatal membranes. Type of test: cell membranes, Membrane.
Test [4] concerns the target Sodium-dependent serotonin transporter (Rattus norvegicus, UniProt P31652). The experiment in a line: Displacement of [3H][…] from SET in rat cortical membranes. Type of test: cell membranes, Membrane.

Each structure is given as a SMILES string.

In general, IC50 refers to the midpoint of a concentration-inhibition curve. The low end stands for inhibition by little substance, the high end for a need for much substance.

Sequence of Histamine H1 receptor (P31390 whole entry): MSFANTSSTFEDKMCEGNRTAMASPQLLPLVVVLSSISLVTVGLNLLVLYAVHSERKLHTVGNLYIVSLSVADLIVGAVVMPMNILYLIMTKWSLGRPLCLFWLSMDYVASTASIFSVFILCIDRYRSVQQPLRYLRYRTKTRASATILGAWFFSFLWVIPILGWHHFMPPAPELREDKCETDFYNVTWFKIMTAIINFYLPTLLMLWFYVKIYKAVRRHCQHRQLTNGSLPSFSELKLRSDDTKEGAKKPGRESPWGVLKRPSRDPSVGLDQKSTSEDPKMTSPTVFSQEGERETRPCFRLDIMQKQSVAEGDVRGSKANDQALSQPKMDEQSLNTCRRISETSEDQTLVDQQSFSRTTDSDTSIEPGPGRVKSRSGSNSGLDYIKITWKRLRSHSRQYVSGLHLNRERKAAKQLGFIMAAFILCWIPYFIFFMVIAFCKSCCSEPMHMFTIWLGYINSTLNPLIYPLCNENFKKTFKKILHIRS
Sequence of Mu-type opioid receptor (P33535 whole entry): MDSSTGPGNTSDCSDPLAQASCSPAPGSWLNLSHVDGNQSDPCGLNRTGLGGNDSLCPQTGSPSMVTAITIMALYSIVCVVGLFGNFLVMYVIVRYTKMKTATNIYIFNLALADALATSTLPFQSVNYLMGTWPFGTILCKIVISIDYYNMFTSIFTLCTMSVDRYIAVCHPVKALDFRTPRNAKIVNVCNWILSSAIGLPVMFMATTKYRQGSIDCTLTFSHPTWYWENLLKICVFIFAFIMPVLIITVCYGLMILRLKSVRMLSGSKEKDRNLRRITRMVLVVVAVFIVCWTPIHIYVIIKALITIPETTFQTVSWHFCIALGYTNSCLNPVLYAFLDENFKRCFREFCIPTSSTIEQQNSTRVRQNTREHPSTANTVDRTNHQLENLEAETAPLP
Sequence of Melanocortin receptor 4 (P32245 whole entry): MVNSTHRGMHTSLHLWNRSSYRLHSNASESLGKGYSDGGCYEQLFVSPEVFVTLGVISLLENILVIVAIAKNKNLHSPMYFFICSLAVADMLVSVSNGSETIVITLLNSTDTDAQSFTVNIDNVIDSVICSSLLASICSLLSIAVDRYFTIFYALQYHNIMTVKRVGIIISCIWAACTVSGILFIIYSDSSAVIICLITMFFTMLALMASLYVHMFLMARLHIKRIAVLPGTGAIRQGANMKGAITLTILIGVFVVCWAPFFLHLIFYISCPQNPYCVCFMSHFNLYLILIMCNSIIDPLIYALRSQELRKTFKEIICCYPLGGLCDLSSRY
Sequence of Sodium-dependent serotonin transporter (P31652 whole entry): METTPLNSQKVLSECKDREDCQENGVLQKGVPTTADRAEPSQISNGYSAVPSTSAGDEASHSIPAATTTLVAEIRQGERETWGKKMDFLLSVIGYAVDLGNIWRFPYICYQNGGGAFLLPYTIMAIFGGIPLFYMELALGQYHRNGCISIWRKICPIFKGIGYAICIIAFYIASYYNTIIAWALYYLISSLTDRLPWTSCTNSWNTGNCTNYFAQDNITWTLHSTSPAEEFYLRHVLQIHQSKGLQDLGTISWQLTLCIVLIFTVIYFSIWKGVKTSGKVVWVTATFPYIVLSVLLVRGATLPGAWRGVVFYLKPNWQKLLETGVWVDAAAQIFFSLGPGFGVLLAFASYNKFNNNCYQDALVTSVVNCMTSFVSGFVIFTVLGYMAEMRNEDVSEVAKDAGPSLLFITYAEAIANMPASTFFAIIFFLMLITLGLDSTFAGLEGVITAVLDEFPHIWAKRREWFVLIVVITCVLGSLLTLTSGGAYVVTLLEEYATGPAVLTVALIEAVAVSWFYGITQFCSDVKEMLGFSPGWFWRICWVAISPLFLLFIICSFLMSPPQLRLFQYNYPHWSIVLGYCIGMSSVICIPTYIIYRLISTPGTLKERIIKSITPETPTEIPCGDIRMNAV
Sequence of Delta-type opioid receptor (P33533 whole entry): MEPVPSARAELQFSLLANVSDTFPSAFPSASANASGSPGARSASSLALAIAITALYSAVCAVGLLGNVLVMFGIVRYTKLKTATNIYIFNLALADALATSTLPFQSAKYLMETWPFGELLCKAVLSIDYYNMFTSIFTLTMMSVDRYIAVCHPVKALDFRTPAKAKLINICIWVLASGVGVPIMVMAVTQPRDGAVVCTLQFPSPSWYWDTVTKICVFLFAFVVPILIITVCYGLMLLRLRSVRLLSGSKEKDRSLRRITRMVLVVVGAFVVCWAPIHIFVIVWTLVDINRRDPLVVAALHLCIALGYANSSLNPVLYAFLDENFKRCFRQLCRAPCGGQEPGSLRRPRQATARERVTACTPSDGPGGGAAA
Sequence of D(2) dopamine receptor (P61169 whole entry): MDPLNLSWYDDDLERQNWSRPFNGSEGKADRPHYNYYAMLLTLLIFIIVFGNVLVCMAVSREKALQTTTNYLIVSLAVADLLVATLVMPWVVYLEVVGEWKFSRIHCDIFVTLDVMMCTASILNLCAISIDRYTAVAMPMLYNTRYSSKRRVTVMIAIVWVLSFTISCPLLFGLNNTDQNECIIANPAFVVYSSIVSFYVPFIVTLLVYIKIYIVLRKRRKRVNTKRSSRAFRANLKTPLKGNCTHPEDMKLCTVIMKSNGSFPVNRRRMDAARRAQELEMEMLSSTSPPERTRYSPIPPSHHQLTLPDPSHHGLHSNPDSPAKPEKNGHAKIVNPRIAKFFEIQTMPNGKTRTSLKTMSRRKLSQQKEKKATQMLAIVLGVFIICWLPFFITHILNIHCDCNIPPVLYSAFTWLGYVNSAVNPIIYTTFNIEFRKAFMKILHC
Sequence of Norepinephrine transporter (Q9WTR4 whole entry): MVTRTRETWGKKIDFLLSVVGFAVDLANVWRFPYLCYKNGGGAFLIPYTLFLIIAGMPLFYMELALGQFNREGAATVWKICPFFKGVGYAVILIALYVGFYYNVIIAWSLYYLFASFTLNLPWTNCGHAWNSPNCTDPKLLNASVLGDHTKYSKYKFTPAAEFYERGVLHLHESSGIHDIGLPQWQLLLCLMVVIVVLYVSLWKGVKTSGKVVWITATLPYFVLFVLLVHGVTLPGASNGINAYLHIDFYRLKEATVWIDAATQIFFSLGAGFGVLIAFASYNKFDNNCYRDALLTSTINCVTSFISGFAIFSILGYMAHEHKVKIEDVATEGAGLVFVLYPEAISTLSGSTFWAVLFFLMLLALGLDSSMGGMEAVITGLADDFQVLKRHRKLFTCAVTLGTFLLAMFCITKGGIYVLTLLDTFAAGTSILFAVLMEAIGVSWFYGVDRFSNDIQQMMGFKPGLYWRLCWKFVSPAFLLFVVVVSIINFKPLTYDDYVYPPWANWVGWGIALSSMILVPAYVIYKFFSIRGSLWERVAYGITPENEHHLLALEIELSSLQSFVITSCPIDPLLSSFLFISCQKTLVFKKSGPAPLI

As for `CC(C)N1CCN(C(CN2CCN(CCCc3c(F)cccc3-c3ccccc3)CC2)c2ccc(F)cc2)CC1` (racemic), the IC50 in test [1] was above 10 µM; on Melanocortin receptor 4, 11.7 nM; on Mu-type opioid receptor, above 10 µM; in test [2], 206 nM; in test [3], above 1000 nM; at Histamine H1 receptor, above 1000 nM. Besides, the IC50 at D(2) dopamine receptor was above 1000 nM; in test [4], 1460 nM.

Take `Cc1cccc(-c2ccccc2)c1CCCN1CCN(CC(c2ccc(F)cc2)N2CCN(C(C)C)CC2)CC1` (racemic): the IC50 in test [1] is above 10 µM; at Melanocortin receptor 4, 24.3 nM; on Mu-type opioid receptor it was above 10 µM; in test [2], 2400 nM; in test [3], above 1000 nM; at Histamine H1 receptor, above 1000 nM. The figures for the IC50 (on D(2) dopamine receptor; in test [4]) were above 1000 nM and 4960 nM, respectively.

For `CC(C)N1CCN(C(CN2CCN(CCCc3cc(F)ccc3-c3ccccc3)CC2)c2ccc(F)cc2)CC1` (racemic), the IC50 in test [1] is above 10 µM; at Melanocortin receptor 4, 27.1 nM; on Mu-type opioid receptor it was above 10 µM; in test [2], 369 nM; in test [3] it was above 1000 nM; at Histamine H1 receptor it was above 1000 nM. Besides, the results for the IC50 (on D(2) dopamine receptor; in test [4]) were 721 nM and 1170 nM, respectively.

Turning to `CC(C)N1CCN(C(CN2CCN(CCCc3ccccc3-c3ccc(F)cc3)CC2)c2ccc(F)cc2)CC1` (racemic), the IC50 in test [1] was above 10 µM; at Melanocortin receptor 4, 10.5 nM; at Mu-type opioid receptor, above 10 µM; in test [2] it was 290 nM; in test [3] it was above 1000 nM; on Histamine H1 receptor, above 1000 nM. Besides, the IC50 is 721 nM on D(2) dopamine receptor and 1340 nM in test [4].

`CC(C)N1CCN(C(CN2CCN(CCCc3cccc(F)c3-c3ccccc3)CC2)c2ccc(F)cc2)CC1` (racemic): the IC50 was above 10 µM in test [1]; 23 nM on Melanocortin receptor 4; above 10 µM at Mu-type opioid receptor; 2830 nM in test [2]; above 1000 nM in test [3]; above 1000 nM on Histamine H1 receptor. Further, the IC50 was above 1000 nM on D(2) dopamine receptor and 3400 nM in test [4].

For the compound `CC(C)N1CCN(C(CN2CCN(CCCc3ccc(F)cc3-c3ccccc3)CC2)c2ccc(F)cc2)CC1` (racemic), the IC50 in test [1] was above 10 µM; on Melanocortin receptor 4, 33 nM; on Mu-type opioid receptor, above 10 µM; in test [2], 1850 nM; in test [3] it was above 1000 nM; at Histamine H1 receptor it was above 1000 nM. Also, the IC50 at D(2) dopamine receptor is above 1000 nM; in test [4], 1370 nM.

Turning to `CC(C)N1CCN(C(CN2CCN(CCCc3c(Cl)cccc3-c3ccccc3)CC2)c2ccc(F)cc2)CC1` (racemic), the IC50 in test [1] was above 10 µM; at Melanocortin receptor 4 it was 27.1 nM; on Mu-type opioid receptor, above 10 µM; in test [2], 1770 nM; in test [3], above 1000 nM; at Histamine H1 receptor, above 1000 nM. Further, the IC50 on D(2) dopamine receptor was above 1000 nM; in test [4] it was 1290 nM.

Turning to `CC(C)N1CCN(C(CN2CCN(CCCc3ccccc3-c3ccccc3)CC2)c2ccc(F)cc2)CC1` (racemic), the IC50 in test [1] is above 10 µM; at Melanocortin receptor 4, 11.2 nM; on Mu-type opioid receptor, above 10 µM; in test [2], 671 nM; in test [3], above 1000 nM; at Histamine H1 receptor, above 1000 nM. Further, the IC50 on D(2) dopamine receptor is 645 nM; in test [4] it was 3130 nM.

`CC(C)N1CCN(C(CN2CCN(CCCc3ccccc3-c3cccc(F)c3)CC2)c2ccc(F)cc2)CC1` (racemic): the IC50 is above 10 µM in test [1]; 23.6 nM at Melanocortin receptor 4; above 10 µM at Mu-type opioid receptor; 226 nM in test [2]; above 1000 nM in test [3]; above 1000 nM at Histamine H1 receptor. In addition, the IC50 at D(2) dopamine receptor was above 1000 nM; in test [4], 2110 nM.

These data come from ChEMBL document CHEMBL1142906, “Structure-activity relationships of novel piperazines as antagonists for the melanocortin-4 receptor” (Bioorg Med Chem, 2007).
